Laboratory results from patent US5188950A, “Method of preparing HIV protease inhibitors” (Merck & Co., Inc., priority 1992, dated 1993).
Where “and” joins values, the source holds several entries; their conditions need not be identical. Equal entries are not always repeated.

Tests used:
HIV protease = molecular target: T1, HIV protease (Human immunodeficiency virus type 1 group M subtype B, UniProt P12497); assay: Inhibition of microbial expressed viral protease (peptide substrate cleavage, HPLC of products); type: biochemical; settings: estimated activities; compounds as isolated from rat liver slices; pH 5.5, 2 hours at 36° C., 283 pM protease
T1 construct: the protease expressed in Escherichia coli; made in house; host or cells: Escherichia coli
Method: Inhibition studies of the reaction of the protease expressed in Escherichia coli with a peptide substrate [Val-Ser-Gln-Asn-(betanapthyl)Ala-Pro-Ile-Val, 0.665 mg/mL at the time the reaction is initiated] were carried out. Aliquots of 40 μl of substrate in substrate buffer (60 mM Na acetate, pH 5.5, in 0.117% BSA) were combined with 10 μl aliquots of various concentrations of inhibitor. The reaction was initiated by the addition of 10 μl of 1.7 nM protease in a solution of 0.05M Na acetate, pH 5.5, in 10% glycerol, 1 mM DTT, 1 mM EDTA, and 64 μM octoxynol-9.5 to yield a final concentration of 283 pM protease. Incubation proceeded for 2 hours at 36° C. The reaction was quenched with 75 ul of 5% phosphoric acid. Products of the reaction were separated by HPLC. The extent of inhibition of the reaction was determined from the peak heights of the products.

[1] = Biotransformation of L-689,502 by rat liver slices; type: in vitro ADME; settings: for metabolite share of the total metabolites: rat liver slices incubated with L-689,502, pH 7.4, 37° C., % of the total metabolites
Method: L-689,502 (5.65 μmole) was incubated at pH 7.4, 37° C., with rat liver slices (1 cm wide, 200-300μ 3.7 g) in 100 ml of Williams' Medium E (composition described in Sigma commercial circular, pages 1-5, herein incorporated by reference for this purpose). A gradual increase in the metabolites in an organic extract of the medium was observed over a period of 5 hours when ~31% of .he drug was metabolized. Three of the major metabolites M1 (6.1% of the total metabolites) and M2 (6.3%) and M4 (12.1%) were characterized by ^1 H-NMR and FAB/Mass spectroscopies. Exact mass measurements, by high resolution FAB/MS, for M1 and M2 gave a molecular ion at m/z 690.375305, which computed to an empirical formula of C39 H52 N3 O8 for the protonated form. The M4 peak was also matched with a synthetic standard by HPLC, MS and NMR.

[2] = Biotransformation of L-689,502 by dog liver slices; type: in vitro ADME; settings: dog liver slices incubated with L-689,502; for metabolite share of the total metabolites: % of the total metabolites

SMILES | IC50 (HIV protease) | metabolised at 5 h, 56.5 µM ([1]; over 5 hours, pH 7.4, 37° C., rat liver slices, 5.65 μmole in 100 ml Williams' Medium E, read-out: drug metabolized) [%] | metabolite share of the total metabolites [1] [%] | metabolite share of the total metabolites [2] [%] | amount of metabolite peak (in words) ([2]; HPLC)
CC(C)(C)OC(=O)N[C@@H](Cc1ccccc1)[C@@H](O)C[C@@H](Cc1ccc(OCCN2CCOCC2)cc1)C(=O)N[C@H]1c2ccccc2C[C@H]1O [L-689,502, N-(cis-2(R)-hydroxy-1(S)-indanyl)-5(S)-(1,1-dimethylethoxycarbonylamino)-4(S)-hydroxy-6-phenyl-2(R)-[(4-(2-(4-morpholinyl)ethoxy)phenyl)methyl]-hexanamide] | 0.93 nM and 0.95 nM | ~31 |  |  | 
CC(C)(C)OC(=O)N[C@@H](Cc1ccccc1)[C@@H](O)C[C@@H](Cc1ccc(OCCN2CCOCC2)cc1)C(=O)N[C@H]1c2ccccc2[C@H](O)[C@H]1O [M1] | 2.7 nM |  | 6.1 | 13.1 | 
CC(C)(C)OC(=O)N[C@@H](Cc1ccccc1)[C@@H](O)C[C@@H](Cc1ccc(OCCN2CCOCC2)cc1)C(=O)N[C@H]1c2cccc(O)c2C[C@H]1O [M2] | 1.3 nM |  | 6.3 | 1.6 | 
CC(C)(C)OC(=O)N[C@@H](Cc1ccccc1)[C@@H](O)C[C@@H](Cc1ccc(OCCN2CCOCC2=O)cc1)C(=O)N[C@H]1c2ccccc2C[C@H]1O [M4] | ~0.5 nM |  | 12.1 |  | a small amount
